Data on eight compounds can be found in ChEMBL document CHEMBL5500380, “Recent discovery and development of AXL inhibitors as antitumor agents” (Eur J Med Chem, 2024).

Experiment [1] concerns the target Epithelial discoidin domain-containing receptor 1 (Homo sapiens, UniProt Q08345). The experiment in a line: Inhibition of DDR1 (unknown origin).
Another experiment concerns the target T1, Aurora kinase A (Homo sapiens, UniProt O14965).
T1 sequence (O14965 whole entry): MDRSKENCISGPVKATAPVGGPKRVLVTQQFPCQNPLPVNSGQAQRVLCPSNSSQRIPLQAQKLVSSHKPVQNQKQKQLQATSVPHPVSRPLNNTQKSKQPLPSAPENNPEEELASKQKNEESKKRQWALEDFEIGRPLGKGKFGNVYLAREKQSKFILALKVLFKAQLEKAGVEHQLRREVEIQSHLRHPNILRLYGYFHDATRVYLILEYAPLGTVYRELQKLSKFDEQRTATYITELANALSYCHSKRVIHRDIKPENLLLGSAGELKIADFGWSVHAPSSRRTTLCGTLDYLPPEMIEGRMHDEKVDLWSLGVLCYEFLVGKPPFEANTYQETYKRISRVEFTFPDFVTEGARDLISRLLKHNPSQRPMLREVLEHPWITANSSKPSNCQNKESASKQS
The experiment in a line: Inhibition of AURORA-A (unknown origin).

The target of experiment [2] is T2, Tyrosine-protein kinase receptor UFO (Homo sapiens, UniProt P30530).
T2 sequence (P30530 whole entry): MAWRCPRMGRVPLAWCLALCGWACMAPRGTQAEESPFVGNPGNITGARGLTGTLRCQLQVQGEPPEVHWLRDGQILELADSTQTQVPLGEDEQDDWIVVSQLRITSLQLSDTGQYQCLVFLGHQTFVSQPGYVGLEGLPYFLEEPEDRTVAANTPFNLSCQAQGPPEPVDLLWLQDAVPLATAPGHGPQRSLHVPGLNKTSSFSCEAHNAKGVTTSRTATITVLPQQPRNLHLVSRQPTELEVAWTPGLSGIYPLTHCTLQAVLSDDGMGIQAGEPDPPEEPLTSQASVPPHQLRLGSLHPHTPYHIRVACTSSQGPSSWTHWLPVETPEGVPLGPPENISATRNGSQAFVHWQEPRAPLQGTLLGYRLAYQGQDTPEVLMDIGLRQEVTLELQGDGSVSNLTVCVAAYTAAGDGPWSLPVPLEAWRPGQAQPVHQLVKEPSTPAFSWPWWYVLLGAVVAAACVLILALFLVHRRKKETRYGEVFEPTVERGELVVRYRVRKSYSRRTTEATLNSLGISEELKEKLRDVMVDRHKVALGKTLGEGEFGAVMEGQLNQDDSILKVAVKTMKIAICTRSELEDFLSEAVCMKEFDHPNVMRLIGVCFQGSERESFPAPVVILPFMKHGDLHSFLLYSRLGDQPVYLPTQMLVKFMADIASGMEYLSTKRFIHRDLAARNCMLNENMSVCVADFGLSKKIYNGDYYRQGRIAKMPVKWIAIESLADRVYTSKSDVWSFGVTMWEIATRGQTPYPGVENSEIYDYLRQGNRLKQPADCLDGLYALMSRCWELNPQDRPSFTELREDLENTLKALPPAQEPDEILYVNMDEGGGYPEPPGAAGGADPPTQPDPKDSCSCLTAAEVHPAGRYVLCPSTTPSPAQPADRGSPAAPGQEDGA
The experiment in a line: Inhibition of AXL (unknown origin).

The next experiment has as its target Aurora kinase B (Homo sapiens, UniProt Q96GD4). Description: Inhibition of AURORA-B (unknown origin).
For experiment [3], the target named is T2, Tyrosine-protein kinase receptor UFO. Description: Inhibition of AXL (unknown origin) by HTRF kinase assay. On the technique in general: In TR-FRET formats the signal depends on donor and acceptor labels being close together.
For experiment [4], the target named is T3, Tyrosine-protein kinase receptor TYRO3 (Homo sapiens) (UniProt Q06418).
T3 sequence (whole entry): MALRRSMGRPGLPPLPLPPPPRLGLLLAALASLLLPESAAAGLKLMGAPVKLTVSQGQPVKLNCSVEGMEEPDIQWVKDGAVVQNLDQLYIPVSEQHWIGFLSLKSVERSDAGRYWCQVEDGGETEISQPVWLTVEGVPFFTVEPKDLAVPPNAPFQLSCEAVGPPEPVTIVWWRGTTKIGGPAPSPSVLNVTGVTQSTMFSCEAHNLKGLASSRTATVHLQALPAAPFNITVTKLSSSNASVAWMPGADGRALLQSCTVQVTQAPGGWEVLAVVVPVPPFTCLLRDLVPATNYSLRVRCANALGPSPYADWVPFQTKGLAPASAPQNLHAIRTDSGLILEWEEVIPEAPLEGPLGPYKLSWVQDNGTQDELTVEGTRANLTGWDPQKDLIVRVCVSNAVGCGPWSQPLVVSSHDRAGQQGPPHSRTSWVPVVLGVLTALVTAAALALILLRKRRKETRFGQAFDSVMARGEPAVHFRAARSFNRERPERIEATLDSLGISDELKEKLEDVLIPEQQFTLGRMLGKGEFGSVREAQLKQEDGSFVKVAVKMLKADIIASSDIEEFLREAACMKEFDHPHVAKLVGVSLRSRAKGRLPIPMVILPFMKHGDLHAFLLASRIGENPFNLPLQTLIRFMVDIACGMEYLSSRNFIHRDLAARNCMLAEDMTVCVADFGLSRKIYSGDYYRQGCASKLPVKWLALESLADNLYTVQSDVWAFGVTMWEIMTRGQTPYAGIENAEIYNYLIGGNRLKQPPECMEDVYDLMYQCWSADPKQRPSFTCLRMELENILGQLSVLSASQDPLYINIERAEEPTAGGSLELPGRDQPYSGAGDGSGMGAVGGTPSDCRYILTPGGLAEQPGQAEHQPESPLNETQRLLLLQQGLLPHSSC
Description: Inhibition of TYRO3 (unknown origin) at 100 nM relative to control.

Experiment [5] deals with Hepatocyte growth factor receptor (Homo sapiens) (UniProt P08581). The experiment in a line: Inhibition of c-MET (unknown origin) at 100 nM relative to control.
Experiment [6] deals with T4, Tyrosine-protein kinase Mer (Homo sapiens) (UniProt Q12866).
T4 sequence (whole entry): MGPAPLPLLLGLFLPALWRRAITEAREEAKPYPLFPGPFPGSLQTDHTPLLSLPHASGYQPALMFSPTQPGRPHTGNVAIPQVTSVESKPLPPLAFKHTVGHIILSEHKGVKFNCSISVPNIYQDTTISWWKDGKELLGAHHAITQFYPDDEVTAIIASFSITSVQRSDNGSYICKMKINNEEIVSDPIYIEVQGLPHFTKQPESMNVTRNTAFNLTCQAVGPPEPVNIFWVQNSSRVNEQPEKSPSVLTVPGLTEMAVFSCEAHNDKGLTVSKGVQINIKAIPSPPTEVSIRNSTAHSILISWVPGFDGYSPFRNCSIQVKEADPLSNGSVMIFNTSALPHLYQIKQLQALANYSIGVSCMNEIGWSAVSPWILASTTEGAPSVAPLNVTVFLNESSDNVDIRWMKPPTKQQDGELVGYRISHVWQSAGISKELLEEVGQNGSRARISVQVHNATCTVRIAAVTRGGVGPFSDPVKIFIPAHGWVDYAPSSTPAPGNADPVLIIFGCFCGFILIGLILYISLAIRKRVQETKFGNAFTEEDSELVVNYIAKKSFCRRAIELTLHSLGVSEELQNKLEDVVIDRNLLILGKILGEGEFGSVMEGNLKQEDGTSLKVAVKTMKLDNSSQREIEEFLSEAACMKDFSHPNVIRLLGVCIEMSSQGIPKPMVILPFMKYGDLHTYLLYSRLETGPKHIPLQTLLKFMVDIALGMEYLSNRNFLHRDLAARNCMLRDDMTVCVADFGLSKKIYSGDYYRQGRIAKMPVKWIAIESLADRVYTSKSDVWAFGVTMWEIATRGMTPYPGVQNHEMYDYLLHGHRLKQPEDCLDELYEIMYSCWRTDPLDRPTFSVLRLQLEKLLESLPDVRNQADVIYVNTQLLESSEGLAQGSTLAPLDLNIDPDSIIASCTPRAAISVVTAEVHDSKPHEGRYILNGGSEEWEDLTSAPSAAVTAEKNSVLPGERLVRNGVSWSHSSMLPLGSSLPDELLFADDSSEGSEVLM
The experiment in a line: Inhibition of MER (unknown origin) at 100 nM relative to control.

Chain of Epithelial discoidin domain-containing receptor 1 (Q08345 whole entry, the tested form may be a part): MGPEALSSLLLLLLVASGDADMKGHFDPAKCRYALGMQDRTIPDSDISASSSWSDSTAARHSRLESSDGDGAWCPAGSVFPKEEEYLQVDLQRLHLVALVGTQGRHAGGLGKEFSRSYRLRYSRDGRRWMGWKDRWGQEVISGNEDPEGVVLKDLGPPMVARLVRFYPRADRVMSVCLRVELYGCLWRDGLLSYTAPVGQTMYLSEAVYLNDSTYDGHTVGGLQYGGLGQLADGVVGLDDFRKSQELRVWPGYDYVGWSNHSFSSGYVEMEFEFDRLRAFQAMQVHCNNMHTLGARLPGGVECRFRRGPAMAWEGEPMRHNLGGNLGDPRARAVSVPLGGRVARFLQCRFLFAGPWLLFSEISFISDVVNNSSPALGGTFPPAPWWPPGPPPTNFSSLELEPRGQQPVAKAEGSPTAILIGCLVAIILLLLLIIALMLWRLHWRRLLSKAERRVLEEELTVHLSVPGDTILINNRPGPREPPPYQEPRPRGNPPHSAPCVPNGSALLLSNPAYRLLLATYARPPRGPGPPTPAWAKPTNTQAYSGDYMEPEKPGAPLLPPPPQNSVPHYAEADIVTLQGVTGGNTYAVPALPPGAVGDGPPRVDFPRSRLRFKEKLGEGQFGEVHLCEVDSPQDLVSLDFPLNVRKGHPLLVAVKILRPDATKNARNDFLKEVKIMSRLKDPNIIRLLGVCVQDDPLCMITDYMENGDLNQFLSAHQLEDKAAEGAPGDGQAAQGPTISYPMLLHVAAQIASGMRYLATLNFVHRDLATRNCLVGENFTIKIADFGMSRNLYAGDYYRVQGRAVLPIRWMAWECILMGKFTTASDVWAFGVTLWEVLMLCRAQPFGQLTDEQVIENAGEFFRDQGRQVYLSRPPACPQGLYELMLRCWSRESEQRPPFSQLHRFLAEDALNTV
Chain of Hepatocyte growth factor receptor (Homo sapiens) (P08581 whole entry): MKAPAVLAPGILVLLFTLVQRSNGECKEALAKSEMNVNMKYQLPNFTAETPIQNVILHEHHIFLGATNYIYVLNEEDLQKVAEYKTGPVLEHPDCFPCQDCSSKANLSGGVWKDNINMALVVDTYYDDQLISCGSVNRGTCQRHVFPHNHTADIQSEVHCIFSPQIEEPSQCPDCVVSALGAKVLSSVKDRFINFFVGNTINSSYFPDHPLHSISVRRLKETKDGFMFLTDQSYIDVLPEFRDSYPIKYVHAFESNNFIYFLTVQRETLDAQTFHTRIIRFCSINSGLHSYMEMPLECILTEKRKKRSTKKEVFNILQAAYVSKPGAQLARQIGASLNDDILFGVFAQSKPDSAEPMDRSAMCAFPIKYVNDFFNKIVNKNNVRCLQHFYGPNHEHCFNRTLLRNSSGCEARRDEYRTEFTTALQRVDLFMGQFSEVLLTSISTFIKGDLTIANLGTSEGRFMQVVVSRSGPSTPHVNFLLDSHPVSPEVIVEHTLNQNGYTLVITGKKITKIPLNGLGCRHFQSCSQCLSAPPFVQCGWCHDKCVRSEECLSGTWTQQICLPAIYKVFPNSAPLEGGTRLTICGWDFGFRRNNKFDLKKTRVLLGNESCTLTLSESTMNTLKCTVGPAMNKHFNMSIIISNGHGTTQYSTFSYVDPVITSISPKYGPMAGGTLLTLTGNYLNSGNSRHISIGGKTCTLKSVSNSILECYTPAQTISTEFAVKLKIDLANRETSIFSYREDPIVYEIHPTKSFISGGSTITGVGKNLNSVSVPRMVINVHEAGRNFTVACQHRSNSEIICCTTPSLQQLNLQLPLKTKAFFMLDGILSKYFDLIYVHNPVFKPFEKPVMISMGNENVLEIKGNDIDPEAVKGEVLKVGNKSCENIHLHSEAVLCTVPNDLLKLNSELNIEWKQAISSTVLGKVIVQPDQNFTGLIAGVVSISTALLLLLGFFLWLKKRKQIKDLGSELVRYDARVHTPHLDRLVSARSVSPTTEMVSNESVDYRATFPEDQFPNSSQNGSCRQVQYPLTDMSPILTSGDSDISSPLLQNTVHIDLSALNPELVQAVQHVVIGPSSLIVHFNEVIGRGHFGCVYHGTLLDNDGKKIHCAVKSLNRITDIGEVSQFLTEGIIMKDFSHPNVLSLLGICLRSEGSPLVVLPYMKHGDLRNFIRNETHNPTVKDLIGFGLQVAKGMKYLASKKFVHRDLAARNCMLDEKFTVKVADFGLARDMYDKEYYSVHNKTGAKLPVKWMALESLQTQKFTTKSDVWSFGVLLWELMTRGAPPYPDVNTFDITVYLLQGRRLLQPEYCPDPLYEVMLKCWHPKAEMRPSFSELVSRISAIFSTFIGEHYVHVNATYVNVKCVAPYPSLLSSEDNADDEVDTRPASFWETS
Chain of Aurora kinase B (Q96GD4 whole entry): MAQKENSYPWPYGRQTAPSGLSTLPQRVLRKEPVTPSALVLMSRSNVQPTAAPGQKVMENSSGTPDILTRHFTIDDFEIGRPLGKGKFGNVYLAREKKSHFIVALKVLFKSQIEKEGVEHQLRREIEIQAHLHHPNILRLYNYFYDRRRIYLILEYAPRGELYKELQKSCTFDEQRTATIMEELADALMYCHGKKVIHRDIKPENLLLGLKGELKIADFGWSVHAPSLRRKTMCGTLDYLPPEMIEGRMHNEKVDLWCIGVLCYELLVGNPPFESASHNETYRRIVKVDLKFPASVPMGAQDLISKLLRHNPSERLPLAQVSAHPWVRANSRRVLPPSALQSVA

`CCc1ccc2c(c1)c(=O)c(C(=O)Nc1ccc(Oc3ccnc4cc(OC)c(OC)cc34)c(F)c1)c(C)n2C`: the half-maximal inhibitory concentration (IC50) in experiment [1] was 22.2 nM; on Aurora kinase A, 192 nM; in experiment [2], 4 nM; at Aurora kinase B, 114 nM.

In experiment [2], `Nn1cc(-c2n[nH]c3cc(Cl)c(NC4CCNC4)cc23)cn1` (centres undefined) had an IC50 of 19 nM.

For `CN1CCc2ccc(Nc3ncc(Cl)c(Nc4ccccc4S(=O)(=O)N(C)C)n3)cc2C1`, in experiment [2], half-maximal inhibition (IC50) was put at 2600 nM.

`COc1cc2ncnc(Oc3ccc(NC(=O)c4c5n(n(-c6cccc(F)c6)c4=O)CCCC5)cc3F)c2cc1OC` gave an IC50 in experiment [2] of 5.9 nM.

In experiment [3], `COc1cc2nccc(Oc3ccc(NC(=O)c4cc5c(n(-c6ccccc6)c4=O)CCCC5=O)nc3)c2cc1OC` [TAMNORZATINIB] yielded an IC50 of 0.7 nM.

Take `COc1cc2nccc(Oc3ccc(NC(=O)c4c5n(n(-c6cc(F)ccc6F)c4=O)CCCC5)cc3F)c2cc1OC`: the 50% inhibitory concentration (IC50) in experiment [2] came to 1.2 nM.

`COc1cc2nccc(Oc3ccc(NC(=O)c4c5n(n(-c6ccc(F)cc6)c4=O)CCCC5)cc3F)c2cc1OC`: the inhibition in experiment [4] is 71%; in experiment [5], 98%; in experiment [6] it was 100%. The compound further registered an IC50 in experiment [2] of 3.5 nM.

`O=C(Nc1ccc(Oc2ccnc3c2CCN3)c(F)c1)c1c[nH]cc(-c2ccc(F)cc2)c1=O` returned a half-inhibitory concentration (IC50) in experiment [2] of 9 nM.

The term IC50 denotes the concentration needed to halve the response being measured. One may read the inhibition as the relative decrease from the control value, in per cent. Read a low inhibition as a response near the control.
